The values that follow come from US8399214B2 (Evonik Degussa GmbH, priority 2005, dated 2013).

Assay [1] deals with E. coli CGSC 3592 (metF64). As to the kind of experiment: Growth on methionine free agar with DMDS in a centre well. Format: cell-based. To be noted: 50 microliters DMDS in well, 30° C. How it is done:
(§1) The selection was for resistance to kanamycin sulfate at 25 mg/L on rich medium […] agar).

Assay [2] deals with E. coli RY714B (metE::Tn10, ΔmetH). The assay is described as above. Format: cell-based. To be noted: 50 microliters DMDS in well, 30° C. How it is done: as §1

`CSSC` [DMDS, dimethyl disulfide]: the “growth on methionine free agar with DMDS” value in assay [1] (CGSC 3592 transformed with empty vector pCLIK) is given as “neither strain transformed with empty vector pCLIK grew”; in assay [1] (CGSC 3592 transformed with pH309 or pH357 (metY)) it was “grew on the plates”; in assay [2] (RY714B transformed with empty vector pCLIK), “neither strain transformed with empty vector pCLIK grew”; in assay [2] (RY714B transformed with pH309 or pH357 (metY)) it was “grew on the plates”.
